Drawing on US9920075B2, “Triazolopyridine and triazolopyrimidine inhibitors of myeloperoxidase” (BRISTOL-MYERS SQUIBB COMPANY, priority 2014, dated 2018), this text covers IC50 for five compounds.

Like-named read-outs stand apart in the source and are kept apart here.

What all share (assay type): biochemical
Assay [1] addresses T1, EPX (Homo sapiens, UniProt P11678).
T1 construct: purchased Lee Biosolutions 342-60
As to the kind of experiment: EPX bromination assay. The method, then:
(§1) [formula] where A=minimal Y value (activity level of inhibited sample), B=maximal Y value (activity level of uninhibited sample), C=Log IC50, D=Hill Slope, x=concentration of inhibitor. EPX Bromination Assay
EPX bromination activity was measured in 100 mM KPi (pH 7.4) by monitoring the H2O2 catalyzed formation of 3-bromo tyrosine from tyrosine and potassium bromide. […] Enzyme and compound were preincubated for ten minutes at room temperature.
The reaction was allowed to proceed for 15 minutes, at which time it was quenched with 10 μL of 20% TCA. The final concentrations of all components were 0.3 μM EPX, 100 μM tyrosine, […], 5 μM H2O2, 0.1% DMSO, 2.0% TCA.
[formula] where A=minimal Y value (activity level of inhibited sample), B=maximal Y value (activity level of uninhibited sample), C=Log IC50, D=Hill Slope, x=concentration of inhibitor.
The column was maintained at 60° C. Samples were eluted using a gradient of 0%-100% B over 2.5 minutes, followed by equilibration with 100% A for 1 minute where A consisted of 0.1% TFA and B consisted of 90% MeOH/0.1% TFA at a flow rate of 0.6 mL/min.

Assay [2] deals with T2, myeloperoxidase (MPO) (Homo sapiens, UniProt P05164).
T2 sequence (P05164 49-745): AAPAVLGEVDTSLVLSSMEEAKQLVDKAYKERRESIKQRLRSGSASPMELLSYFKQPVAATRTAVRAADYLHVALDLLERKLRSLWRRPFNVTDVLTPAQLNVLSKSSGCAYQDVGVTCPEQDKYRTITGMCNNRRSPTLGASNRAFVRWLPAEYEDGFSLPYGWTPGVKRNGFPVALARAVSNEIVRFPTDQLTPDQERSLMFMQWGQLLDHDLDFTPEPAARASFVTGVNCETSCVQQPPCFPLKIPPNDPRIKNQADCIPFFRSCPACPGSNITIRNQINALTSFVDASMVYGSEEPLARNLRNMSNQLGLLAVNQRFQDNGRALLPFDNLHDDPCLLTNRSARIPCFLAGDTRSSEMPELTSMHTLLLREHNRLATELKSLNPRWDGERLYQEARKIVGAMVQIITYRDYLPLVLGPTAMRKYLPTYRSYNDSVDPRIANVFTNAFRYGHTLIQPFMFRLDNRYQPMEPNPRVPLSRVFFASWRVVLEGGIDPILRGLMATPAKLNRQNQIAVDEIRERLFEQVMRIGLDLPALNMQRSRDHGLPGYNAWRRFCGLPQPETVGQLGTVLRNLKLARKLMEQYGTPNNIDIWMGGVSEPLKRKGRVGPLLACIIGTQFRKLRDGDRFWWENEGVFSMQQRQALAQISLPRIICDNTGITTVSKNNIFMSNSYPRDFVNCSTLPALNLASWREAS
As to the kind of experiment: MPO chlorination assay (APF assay). Here is the method:
[formula] where A=minimal Y value (activity level of inhibited sample), B=maximal Y value (activity level of uninhibited sample), C=Log IC50, D=Hill Slope, x=concentration of inhibitor. MPO Chlorination Assay (APF Assay)
MPO chlorination activity was measured in 100 mM KPi (pH 7.4) by utilizing the non-fluorescent reagent Aminophenyl fluorescein (APF, Invitrogen Cat. #A36003). APF is cleaved by (—OCl) to yield the fluorescent compound fluorescein. […] Enzyme, inhibitor, and chloride were preincubated for ten minutes at room temperature.
After the ten minute preincubation, 25 μL of an APF mixture containing […], 120 mM NaCl and 10 μM H2O2 was added to the plate using the internal dispensing system of a Hammatsu FDSS 6000. […] IC50 values for inhibitors were calculated by taking the slope of the linear portion of the kinetic measurement (20 seconds to ˜80-120 secs).
IC50 values were calculated by determining the slope of the linear portion of the kinetic trace (180-540 secs), and using that calculated slope to determine % inhibition occurring at each concentration of inhibitor using the following equation:
as §1

The target of assay [3] is T2, myeloperoxidase (MPO). As to the kind of experiment: MPO peroxidation assay (Amplex Red assay). Particulars: MPO peroxidation, 100 mM KPi pH 7.4, ten minute preincubation. The method, boiled down:
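Enzyme and compound preincubated 10 min at room temperature in 100 mM KPi, pH 7.4. Amplex Red (200 μM) plus H2O2 (10 mM) mixture then added, peroxidase oxidation to fluorescent resorufin followed kinetically. IC50 from slope over 180–540 s, converted to % inhibition and fitted to a four-parameter Hill equation.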

The mark [4] stands for this setting: EPX bromination, 100 mM KPi pH 7.4, ten minute preincubation, read-out: EPX IC50.
[5] abbreviates: MPO chlorination, 100 mM KPi pH 7.4, ten minute preincubation, read-out: APF Assay IC50 value.
The mark [6] stands for this setting: read-out: Amplex Red Assay IC50 value.

T1 sequence (P11678 251-715 limits assumed): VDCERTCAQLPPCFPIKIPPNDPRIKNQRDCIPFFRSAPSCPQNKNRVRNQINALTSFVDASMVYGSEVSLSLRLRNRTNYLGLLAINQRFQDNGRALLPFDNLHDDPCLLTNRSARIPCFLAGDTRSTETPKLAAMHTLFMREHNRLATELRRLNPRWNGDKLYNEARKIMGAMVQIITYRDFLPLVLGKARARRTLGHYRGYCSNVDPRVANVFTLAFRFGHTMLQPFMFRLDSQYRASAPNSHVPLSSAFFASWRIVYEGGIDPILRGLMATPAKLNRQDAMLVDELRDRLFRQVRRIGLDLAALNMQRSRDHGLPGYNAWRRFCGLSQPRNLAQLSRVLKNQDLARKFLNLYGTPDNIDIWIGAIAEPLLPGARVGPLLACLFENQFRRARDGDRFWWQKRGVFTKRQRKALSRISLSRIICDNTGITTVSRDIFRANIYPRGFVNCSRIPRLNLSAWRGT
T1 sequence (P11678 140-250 limits assumed): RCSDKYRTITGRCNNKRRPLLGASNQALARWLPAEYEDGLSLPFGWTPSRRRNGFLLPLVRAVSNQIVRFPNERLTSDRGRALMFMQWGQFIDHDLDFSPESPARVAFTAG

The term IC50 denotes the point on the concentration scale where inhibition reaches its midpoint. Consider `CCn1nc(COc2cc(N)nc3[nH]nnc23)cc1C(F)(F)F` [Example 6, 7-((1-Ethyl-5-(trifluoromethyl)-1H-pyrazol-3-yl)methoxy)-3H-[1,2,3]triazolo[4,5-b]pyridin-5-amine], for which the values for the half-maximal inhibitory concentration (IC50) in assay [1] (setting [4]), in assay [2] (setting [5]) and in assay [3] (setting [6]) were 70 nM, 130 nM and 20 nM, respectively.
The matching figures for `COc1ccc(-n2nc(C)c(COc3cc(N)nc4[nH]nnc34)n2)cc1` [Example 11, 7-((2-(4-Methoxyphenyl)-5-methyl-2H-1,2,3-triazol-4-yl)methoxy)-3H-[1,2,3]triazolo[4,5-b]pyridin-5-amine]: 40 nM, 170 nM and 20 nM.
The matching figures for `Cn1ncc2c(COc3cc(N)nc4[nH]nnc34)cccc21` [Example 15, 7-((1-Methyl-1H-indazol-4-yl)methoxy)-3H-[1,2,3]triazolo[4,5-b]pyridin-5-amine]: 40 nM, 60 nM and 20 nM.
In the case of `Nc1cc(OCc2nn(-c3ccccc3)nc2C(F)F)c2nn[nH]c2n1` [Example 55, 7-((5-(Difluoromethyl)-2-phenyl-2H-1,2,3-triazol-4-yl)methoxy)-3H-[1,2,3]triazolo[4,5-b]pyridin-5-amine], the 50% inhibitory concentration (IC50) was 10 nM in assay [1], 80 nM in assay [2] and 10 nM in assay [3] (Amplex Red Assay IC50 value).
Consider `Nc1cc(OCc2cccnc2Cl)c2nn[nH]c2n1` [Example 90, 7-((2-Chloropyridin-3-yl)methoxy)-3H-[1,2,3]triazolo[4,5-b]pyridin-5-amine], for which the IC50 stood at 50 nM in assay [2] (setting [5]) and 110 nM in assay [3] (setting [6]).
